Assay results reported in PMC7321382, “Synthesis and Antibacterial Analysis of Analogues of the Marine Alkaloid Pseudoceratidine” (Molecules, 2020).
Values after ≈ are worked out from the molar mass of the structure shown.

Tests used:
S. aureus 16207 = test: Antibacterial MIC, broth microdilution, S. aureus; format: cell-based, Staphylococcus aureus; conditions: Staphylococcus aureus, 16207; Gram-positive; 24 h incubation; highest concentration tested 32 µM
Experimental: (§1) The MIC was determined using the broth microdilution method. Mueller Hinton (MH) broth base was prepared in milli-Q water, then autoclaved at 120 °C for 1 h before allowing it to cool to room temperature. A single colony of each bacterial strain (E. coli DH5α and S. aureus 16207) was inoculated in MHB and incubated at 37 °C overnight. Overnight cultures were adjusted to 10^6 CFU/mL in MHB according to the McFarland Standard,100 μL of which was further diluted to a total of 10 mL in the media. The stock solutions of the compounds were prepared at 12.8 mM in purified DMSO. The stock solutions were further diluted in milli-Q water to 64 μM in 0.5% DMSO for testing against S. aureus, and 256 μM in 2% DMSO for testing against E. coli. Compounds that were not soluble in these solvent mixtures were further diluted in half to get clear solutions for the bioassay. DMSO is known to have weak antibacterial activity. To exclude the antibacterial effect of DMSO from the results, a solution of 2% DMSO in milli-Q water was used as an additional control in the experiments. The compounds and three controls (the natural product pseudoceratidine 1 for both strains, streptomycin for S. aureus, and polymyxin B for E. coli) then underwent a dilution series. The assay was performed by adding 50 μL of each compound solution at the different concentrations and 50 μL of the diluted bacterial culture to the different wells of a 96-well microtiter plate. The experiments were performed at least thrice and in triplicates. MIC after 24 h of incubation was determined by both visual inspection and absorbance at 600 nm using an EnSpire Multimode plate reader.

E. coli DH5α = test: Antibacterial MIC, broth microdilution, E. coli; format: cell-based, Escherichia coli; conditions: Gram-negative, 24 h incubation, highest concentration tested 128 µM, † lower starting concentration due to insolubility; for MIC: Escherichia coli
Experimental: as §1

Row | Compound | MIC (S. aureus 16207) | MIC (E. coli DH5α) | melting point | MIC E. Coli (E. coli DH5α)
1 | O=C(NCCCCNC(=O)c1ccc[nH]1)c1ccc[nH]1 [Compound 12a] | > 32 µM | > 128 µM | 215 to 216 °C | –
2 | O=C(NCCCCNC(=O)c1cc(Cl)c[nH]1)c1cc(Cl)c[nH]1 [Compound 12b] | > 32 µM | > 64 µM | > 230 °C | –
3 | O=C(NCCCCNC(=O)c1cc(Cl)c(Cl)[nH]1)c1cc(Cl)c(Cl)[nH]1 [Compound 12c] | > 32 µM | > 64 µM | > 230 °C | –
4 | O=C(NCCCCNC(=O)c1cc(Br)c[nH]1)c1cc(Br)c[nH]1 [Compound 12d] | > 32 µM | > 64 µM | > 230 °C | –
5 | O=C(NCCCCNC(=O)c1cc(Br)c(Br)[nH]1)c1cc(Br)c(Br)[nH]1 [Compound 12e] | > 32 µM | > 64 µM | > 230 °C | –
6 | O=C(NCCCCNC(=O)c1cc(I)c[nH]1)c1cc(I)c[nH]1 [Compound 12f] | > 32 µM | > 64 µM | – | –
7 | O=C(NCCNCCNC(=O)c1ccc[nH]1)c1ccc[nH]1 [Compound 13a] | > 32 µM | > 128 µM | 191 to 193 °C | –
8 | O=C(NCCNCCNC(=O)c1cc(Cl)c[nH]1)c1cc(Cl)c[nH]1 [Compound 13b] | > 32 µM | > 128 µM | 199 to 201 °C | –
9 | O=C(NCCNCCNC(=O)c1cc(Cl)c(Cl)[nH]1)c1cc(Cl)c(Cl)[nH]1 [Compound 13c] | > 32 µM | > 64 µM | > 230 °C | –
10 | O=C(NCCNCCNC(=O)c1cc(Br)c[nH]1)c1cc(Br)c[nH]1 [Compound 13d] | > 32 µM | > 128 µM | 201 to 203 °C | –
11 | O=C(NCCNCCNC(=O)c1cc(Br)c(Br)[nH]1)c1cc(Br)c(Br)[nH]1 [Compound 13e] | > 32 µM | > 64 µM | > 230 °C | –
12 | O=C(NCCNCCNC(=O)c1cc(I)c[nH]1)c1cc(I)c[nH]1 [Compound 13f] | > 32 µM | > 64 µM | 193 to 195 °C | –
13 | O=C(NCCCNCCCNC(=O)c1ccc[nH]1)c1ccc[nH]1 [Compound 14a] | > 32 µM | > 128 µM | 165 to 166 °C | –
14 | O=C(NCCCNCCCNC(=O)c1cc(Cl)c[nH]1)c1cc(Cl)c[nH]1 [Compound 14b] | > 32 µM | > 128 µM | 78 to 80 °C | –
15 | O=C(NCCCNCCCNC(=O)c1cc(Br)c[nH]1)c1cc(Br)c[nH]1 [Compound 14d] | > 32 µM | > 128 µM | 73 to 75 °C | –
16 | O=C(NCCCNCCCNC(=O)c1cc(I)c[nH]1)c1cc(I)c[nH]1 [Compound 14f] | > 32 µM | > 128 µM | 93 to 95 °C | –
17 | O=C(NCCCCCCNCCCCCCNC(=O)c1ccc[nH]1)c1ccc[nH]1 [Compound 15a] | > 32 µM | > 128 µM | 129 to 131 °C | –
18 | O=C(NCCCCCCNCCCCCCNC(=O)c1cc(Cl)c[nH]1)c1cc(Cl)c[nH]1 [Compound 15b] | > 32 µM | > 128 µM | 106 to 108 °C | –
19 | O=C(NCCCCCCNCCCCCCNC(=O)c1cc(Br)c[nH]1)c1cc(Br)c[nH]1 [Compound 15d] | > 32 µM | > 64 µM | 178 to 180 °C | –
20 | O=C(NCCCCCCNCCCCCCNC(=O)c1cc(I)c[nH]1)c1cc(I)c[nH]1 [Compound 15f] | > 32 µM | > 64 µM | 174 to 176 °C | –
21 | O=C(NCCCNCCNC(=O)c1ccc[nH]1)c1ccc[nH]1 [Compound 16a] | > 32 µM | > 128 µM | 69 to 71 °C | –
22 | O=C(NCCCNCCNC(=O)c1cc(Cl)c[nH]1)c1cc(Cl)c[nH]1 [Compound 16b] | > 32 µM | > 128 µM | 167 to 169 °C | –
23 | O=C(NCCCNCCNC(=O)c1cc(Br)c[nH]1)c1cc(Br)c[nH]1 [Compound 16d] | > 32 µM | > 128 µM | 188 to 190 °C | –
24 | O=C(NCCCNCCNC(=O)c1cc(I)c[nH]1)c1cc(I)c[nH]1 [Compound 16f] | > 32 µM | > 128 µM | 178 to 180 °C | –
25 | O=C(NCCCCNCCCNC(=O)c1ccc[nH]1)c1ccc[nH]1 [Compound 17a] | > 32 µM | > 128 µM | – | –
26 | O=C(NCCCCNCCCNC(=O)c1cc(Cl)c[nH]1)c1cc(Cl)c[nH]1 [Compound 17b] | > 32 µM | > 128 µM | 80 to 81 °C | –
27 | O=C(NCCCCNCCCNC(=O)c1cc(Cl)c(Cl)[nH]1)c1cc(Cl)c(Cl)[nH]1 [Compound 17c] | > 32 µM | 128 to 256 µM (≈ 60.1 to 120 µg/mL) | – | –
28 | O=C(NCCCCNCCCNC(=O)c1cc(Br)c[nH]1)c1cc(Br)c[nH]1 [Compound 17d] | > 32 µM | > 128 µM | – | –

Row | Compound | MIC (S. aureus 16207) | MIC (E. coli DH5α) | melting point | MIC E. Coli (E. coli DH5α)
29 | O=C(NCCCCNCCCNC(=O)c1cc(I)c[nH]1)c1cc(I)c[nH]1 [Compound 17f] | > 32 µM | > 128 µM | 89 to 90 °C | –
30 | O=C(NCCCNCCCNCCCNC(=O)c1ccc[nH]1)c1ccc[nH]1 [Compound 18a] | > 32 µM | > 128 µM | – | –
31 | O=C(NCCCNCCCNCCCNC(=O)c1cc(Cl)c[nH]1)c1cc(Cl)c[nH]1 [Compound 18b] | > 32 µM | 64 to 128 µM (≈ 28.4 to 56.8 µg/mL) | – | –
32 | O=C(NCCCNCCCNCCCNC(=O)c1cc(Br)c[nH]1)c1cc(Br)c[nH]1 [Compound 18d] | 16 to 32 µM (≈ 8.52 to 17 µg/mL) | 64 to 128 µM (≈ 34.1 to 68.1 µg/mL) | – | –
33 | O=C(NCCCNCCCNCCCNC(=O)c1cc(I)c[nH]1)c1cc(I)c[nH]1 [Compound 18f] | 16 to 32 µM (≈ 10 to 20 µg/mL) | 64 to 128 µM (≈ 40.1 to 80.2 µg/mL) | 78 to 80 °C | –
34 | O=C(NCCCNCCCCNCCCNC(=O)c1ccc[nH]1)c1ccc[nH]1 [Compound 19a] | > 32 µM | > 128 µM | 175 to 176 °C | –
35 | O=C(NCCCNCCCCNCCCNC(=O)c1cc(Cl)c[nH]1)c1cc(Cl)c[nH]1 [Compound 19b] | > 32 µM | > 128 µM | 194 to 195 °C | –
36 | O=C(NCCCNCCCCNCCCNC(=O)c1cc(Br)c[nH]1)c1cc(Br)c[nH]1 [Compound 19d] | 16 to 32 µM (≈ 8.74 to 17.5 µg/mL) | 64 to 128 µM (≈ 35 to 69.9 µg/mL) | 173 to 175 °C | –
37 | O=C(NCCCNCCCCNCCCNC(=O)c1cc(I)c[nH]1)c1cc(I)c[nH]1 [Compound 19f] | 16 to 32 µM (≈ 10.2 to 20.5 µg/mL) | > 128 µM | 173 to 175 °C | –
38 | NCCNCCNC(=O)c1ccc[nH]1 [Compound 20] | > 32 µM | > 128 µM | – | –
39 | NCCCNCCNC(=O)c1cc(Br)c[nH]1 [Compound 21] | > 32 µM | > 128 µM | – | –
40 | NCCNCCCNC(=O)c1cc(Br)c[nH]1 [Compound 22] | > 32 µM | > 128 µM | – | –
41 | NCCCNCCNC(=O)c1cc(Br)c(Br)[nH]1 [Compound 23] | > 32 µM | > 128 µM | – | –
42 | NCCNCCCNC(=O)c1cc(Br)c(Br)[nH]1 [Compound 24] | > 32 µM | > 128 µM | – | –
43 | CN(C)CCCNC(=O)c1ccc[nH]1 [Compound 27a] | > 32 µM | > 128 µM | – | –
44 | CN(C)CCCNC(=O)c1cc(Cl)c[nH]1 [Compound 27b] | > 32 µM | > 128 µM | – | –
45 | CN(C)CCCNC(=O)c1cc(Cl)c(Cl)[nH]1 [Compound 27c] | > 32 µM | > 128 µM | – | –
46 | CN(C)CCCNC(=O)c1cc(Br)c[nH]1 [Compound 27d] | > 32 µM | > 128 µM | – | –
47 | CN(C)CCCNC(=O)c1cc(Br)c(Br)[nH]1 [Compound 27e] | > 32 µM | > 128 µM | – | –
48 | CN(C)CCCNC(=O)c1cc(I)c[nH]1 [Compound 27f] | > 32 µM | > 128 µM | 169 to 171 °C | –
49 | CC(C)(C)OC(=O)NCCCNC(=O)c1ccc[nH]1 [Compound 28a] | > 32 µM | > 128 µM | 90 to 91 °C | –
50 | CC(C)(C)OC(=O)NCCCNC(=O)c1cc(Cl)c[nH]1 [Compound 28b] | > 32 µM | > 128 µM | – | –
51 | CC(C)(C)OC(=O)NCCCNC(=O)c1cc(Cl)c(Cl)[nH]1 [Compound 28c] | > 32 µM | > 128 µM | 158 to 160 °C | –
52 | CC(C)(C)OC(=O)NCCCNC(=O)c1cc(Br)c[nH]1 [Compound 28d] | > 32 µM | > 128 µM | – | –
53 | CC(C)(C)OC(=O)NCCCNC(=O)c1cc(Br)c(Br)[nH]1 [Compound 28e] | > 32 µM | > 128 µM | – | –
54 | [H]/N=C(/N)N[C@H]1[C@H](O)[C@@H](O)[C@H](O[C@@H]2O[C@@H](C)[C@](O)(C=O)[C@H]2O[C@@H]2O[C@@H](CO)[C@H](O)[C@@H](O)[C@@H]2NC)[C@@H](N/C(N)=N\[H])[C@@H]1O [Streptomycin, streptomycin, reference compound] | 0.625 to 1.25 µM (≈ 0.363 to 0.727 µg/mL) | – | – | –
55 | polymyxin B [reference compound] | – | – | – | 0.3 to 0.6 µM
